Paper PMC4157788, “A Small Library of Synthetic Di-Substituted 1, 4-Naphthoquinones Induces ROS-Mediated Cell Death in Murine Fibroblasts” (PLoS ONE, 2014)
Like-named read-outs stand apart in the source and are kept apart here.

Tests used:
[1] = test system: murine fibroblast cell line (L929); experiment: MTT viability assay; type: cell-based; conditions: L929 cells; for Toxicity group: 48 hrs, MTT, Group I no difference from DMSO, Group II dose-responsive inhibition, Group III >50% inhibition at the lowest concentration; for IC50: Mus musculus, read-out: IC50 (concentration of compound that induces 50% inhibition of survival); for IC50 / IC50 (concentration of compound that induces 50% inhibition of survival): MTT assay, 48 hrs incubation, doubling dilutions
Procedure: The MTT (3-(4, 5-dimethylthiazol-2-yl)-2, 5-diphenyl tetrazolium bromide) viability assays were carried out as per manufacturers' instructions (Sigma). The L929 cells were plated at 50,000 cells per well in a 96-well flat-bottom plate (Becton-Dickinson Labware, Franklin Lakes, NJ). The cells were cultured with decreasing concentrations of the compounds (in duplicate), beginning at 0.50 mg/ml and decreasing by half over eleven additional dilutions. As controls, cells remained untreated (media alone) or were treated with equivalent dilutions of dimethylsulfoxide (DMSO, vehicle control) (Sigma). Following a 48 h incubation, the MTT reagent was added at 10% of the total volume per well. Following a 4 h incubation, the formed crystals were solubilized by removing approximately ¾ of the supernatant and adding 50 µl of solvent (10% Triton × and 1% 12 N HCl in isopropanol) (Sigma). All wells were vigorously pipetted (without forming bubbles) to help dissolve the crystals. The plates were then read in a 96-well plate spectrophotometer at 570 nm.

L929 cells [2] = experiment: Light microscopy of compound-treated cells (morphology); type: cell-based, murine; conditions: 24 hr, compound at IC50 (H2O2 600 µM), light microscopy 40X
Procedure: The cells were cultured for 24 h at 37°C, 5% CO2. […] Digital images were captured using the AxioCam HR digital camera and were processed with Axiovision Software, Version 4.1.

L929 cells [3] = experiment: Flow cytometry assessment of apoptosis (Annexin V-FITC / propidium iodide); type: cell-based, murine; conditions: 48 hrs, IC50 (lowest concentration tested for highly cytotoxic compounds), versus medium alone
Procedure: The cells were then washed in FACS buffer (phosphate buffered saline +2% fetal bovine serum), resuspended in 50 µl of buffer and then incubated with 30% normal mouse serum (Sigma) to prevent non-specific staining, for 15 min. at room temperature. The cells were then treated with 5 µl of FITC-conjugated annexin V (1 mg/ml stock) and 2 µl of propidium iodide (5 mg/ml stock). The cells were then mixed gently and incubated at room temperature for 15 minutes in the dark followed by an analysis by flow cytometry within the hour.

caspase 3 in L929 cells = experiment: Detection of active caspase-3 (colorimetric DEVD-pNA assay); type: cell-based, murine; conditions: 24 h treatment
Procedure: The assay was performed as per the manufacturers' instructions (BioSource International, Camarillo, CA). The L929 cells were plated at 3×10^6 cells per well in 6-well plates. The cells were then treated with the indicated compounds for 24 h. After treatment with the compounds, the cells were centrifuged, washed twice with 1× PBS, were re-suspended in 50 µL of chilled Cell Lysis Buffer and were incubated for 10 min. on ice. The samples were then centrifuged and the cytosolic extracts were then transferred to 96-well flat-bottom plates. Reaction buffer (5 µL of 1.0 M DTT to 500 µL of 2× Reaction buffer), made just prior to use, and was added to each well. DEVD-pNA substrate (5 µL) was then added to each well and the samples were incubated in the dark for an additional 2 h. The plates were then read on a spectrophotometer at a wavelength of 405 nm.

L929 cells [4] = experiment: Detection of reactive oxygen species (ROS) by DHCF-DA; type: cell-based, murine; conditions: compound at IC50, 24 hrs, fluorometric assay
Procedure: Cells were plated at 50,000 cells per well in 96-well plates, protected or unprotected by 10 µM ascorbic acid. Following a 4 h incubation period, the cells were then treated with the indicated compounds at the IC50 or with H2O2 as a positive control. Twenty-four hours later, the plates were centrifuged and the supernatants were collected. The adherent cells were treated with 20 µL of 0.25% trypsin (Invitrogen) for 2 min. The cells were then removed and transferred to black-walled 96-well plates to prevent bleeding of fluorescence between sample wells. Dichlorofluorescein-Diacetate (10 µM) (Invitrogen - Molecular Probes), was then added to each well. The plates were then immediately read on a fluorescent plate reader using excitation wavelength of 485 nm and emission wavelength of 538 nm. Fluorescence was determined every 10 min over a 320 min. period.

L929 cells [5] = experiment: Catalase and superoxide dismutase (SOD) protection assay (MTT viability); type: cell-based, murine; conditions: 48 hr; for Protection of compound-treated cells by SOD (viability): compound at IC50, SOD 0.5 mg/ml; for Protection of compound-treated cells by combination of catalase and SOD (viability): compound at IC50, catalase 1 mg/ml + SOD 0.5 mg/ml; for Protection of compound-treated cells by catalase (viability): compound at IC50, catalase 1 mg/ml
Procedure: L929 cells were plated at 50,000 cells/well in a 96-well flat-bottom plate. Catalase (1 mg/ml), SOD (0.5 mg/ml), or combinations of the two were added to the cells. The cells were also treated with the indicated compounds at a concentration that inhibited 50% of cellular viability or with media or DMSO as controls. Following a 48 h incubation period, cellular viability was assessed as described above (MTT assay).

L929 cells [6] = experiment: Ascorbic acid protection assay (MTT viability); type: cell-based, murine; conditions: L929 cells pre-loaded for 4 h with 10 µM ascorbic acid, compound at IC50, 48 hrs
Procedure: […] The cells were then thoroughly washed with Hank's Balanced Salt Solution (HBSS (Invitrogen) and the MTT viability assay was conducted as described above.

L929 cells [7] = experiment: Detection of mitochondrial membrane depolarization (DePsipher, flow cytometry); type: cell-based, murine; conditions: compound at IC50, DePsipher
Procedure: L929 cells (5×10^4 cells/well) were cultured in 12-well plates for 48 h in the presence of medium, DMSO, camptothecin (4 µM, positive control) or compound (IC50). The cells were then washed in FACS buffer resuspended in 100 µl of buffer. DePsipher (5, 5′6, 6′-tetrachloro-1, 1′, 3, 3′-tetraethylbenzimidazolylcarbocyanine iodide) (5 µl per sample) (Trevigen, Inc., Gaithersburg, MD) was then added. The cells were incubated at room temp., in the dark for a minimum of 15 min. The cells were assayed within the hour by flow cytometry. 10,000 events per sample were collected and analyzed by EXPO32 software.

Row | Structure (SMILES) | Toxicity group [1] | IC50 [1] [µg/mL] | IC50 ([1]; same value converted to µM) [µM] | Effect on cellular morphology (L929 cells [2]) | Externalization of phosphatidylserine (Annexin V staining) (L929 cells [3]) | also measured
1 | O=C1C(c2ccccc2)=C(c2ccccc2)C(=O)c2ccccc21 [Compound 2, 2,3-diphenyl-1,4-napthoquinone] | Group II Intermediate toxicity | 30 | 96.7 | detrimental to cell survival | promoted externalization of PS significantly above that induced by medium alone | Activation of caspase 3 (caspase 3 in L929 cells): activated caspase 3 equivalently; Formation of intracellular reactive oxygen species (ROS) (L929 cells [4]): induced levels of ROS equal to that induced by H2O2; Protection of compound-treated cells by SOD (viability) (L929 cells [5]): did not protect; Protection of compound-treated cells by combination of catalase and SOD (viability) (L929 cells [5]): did not protect the cells against compound 2 beyond that provided by catalase alone; Protection of compound-treated cells by catalase (viability) (L929 cells [5]): partially protected; Protection of compound-treated cells by ascorbic acid pre-treatment (viability) (L929 cells [6]): partially protected from cell death
2 | CC1=C(C)C(=O)c2ccccc2C1=O [Compound 3, 2,3-dimethyl-1,4-napthoquinone] |  | 8 | 42.9 |  | promoted externalization of PS significantly above that induced by medium alone | 
3 | CC(C)=CCC1=C(O)C(=O)c2ccccc2C1=O [Compound 4, 2-hydroxy-3-(3-methyl-2 butenil)-1, 4 naphthoquinone] |  | 15 | 62 |  | promoted externalization of PS significantly above that induced by medium alone | 
4 | CC1=CC(=O)c2c(O)cccc2C1=O [Compound 5, 2-methyl-5-hydroxy-1,4-napthoquinone, reference compound] | Group III High toxicity | < 1 | < 5.3 | detrimental to cell survival | promoted externalization of PS significantly above that induced by medium alone | Activation of caspase 3 (caspase 3 in L929 cells): activated caspase 3 equivalently; Change in mitochondrial membrane potential (depolarization) (L929 cells [7]): does not activate mitochondrial depolarization; Formation of intracellular reactive oxygen species (ROS) (L929 cells [4]): induced levels of ROS equal to that induced by H2O2; Protection of compound-treated cells by SOD (viability) (L929 cells [5]): did not protect; Protection of compound-treated cells by combination of catalase and SOD (viability) (L929 cells [5]): did not protect; Protection of compound-treated cells by catalase (viability) (L929 cells [5]): did not protect; Protection of compound-treated cells by ascorbic acid pre-treatment (viability) (L929 cells [6]): partially protected from cell death
5 | O=C1C=CC(=O)c2ccccc21 [Compound 6, 1,4-napthoquinone] |  | < 1 | < 6.3 |  | promoted externalization of PS significantly above that induced by medium alone | Activation of caspase 3 (caspase 3 in L929 cells): activated caspase 3 equivalently
6 | O=C1C=CC(=O)c2c(O)cccc21 [Compound 7, 5-hydroxy-1,4-napthoquinone, reference compound] |  | < 1 | < 5.7 |  | promoted externalization of PS significantly above that induced by medium alone | 
7 | N#CC1=C(C#N)C(=O)C(Cl)=C(Cl)C1=O [Compound 8, 2,3-dichloro-5,6-dicyano-1,4-benzoquinone] | Group I No toxicity |  |  |  |  | IC50 (concentration of compound that induces 50% inhibition of survival) [1]: No inhibition
8 | CC1=C(C/C=C(\C)CCC[C@H](C)CCC[C@H](C)CCCC(C)C)C(=O)c2ccccc2C1=O [Compound 9, 2-methyl-3-phytyl-1,4-naphthoquinone, reference compound] |  |  |  | no effect on the cells | promoted externalization of PS significantly above that induced by medium alone | IC50 (concentration of compound that induces 50% inhibition of survival) [1]: No inhibition; Formation of intracellular reactive oxygen species (ROS) (L929 cells [4]): induced ROS equal to that generated in non-treated cells
9 | O=C1c2ccccc2C(=O)C2OC12 (stereo not drawn) [Compound 10, 1,4-napthoquinone epoxide] |  | 4 | 23 |  |  | 
10 | CCCC1=CC(=O)c2ccccc2C1=O [Compound 11, 2-propyl-1,4-napthoquinone] | Group II Low toxicity | 60 | 300 |  | promoted externalization of PS significantly above that induced by medium alone | 
11 | CCC1=C(C)C(=O)c2ccccc2C1=O [Compound 12, 2-ethyl-3-methyl-1,4-napthoquinone] |  | 30 | 150 |  |  | 
12 | OO [Compound H2O2, hydrogen peroxide] |  |  |  | rounded, granular, and vesiculated |  | 
